Measurements from patent US10463644B2, “Uses of sesquiterpene lactone compounds and their derivatives in drugs preparation” (ACCENDATECH, priority 2013, dated 2019).
Like-named read-outs stand apart in the source and are kept apart here.

Legend:
cancer stem cells = assay: Survival rate of cancer stem cells after test compound is added (flow cytometry, Annexin V-FITC/PI, clinical specimen); assay type: cell-based, patient; conditions: Homo sapiens, 18 h
Description: (§1) Take fresh or cryopreserved clinical specimen (acute myelogenous leukemia (AML, marker is CD34^+/CD38^+), chronic myelogenous leukemia (CML, Ph+/CD34+/CXCR4+), chronic lymphocytic leukemia (CLL,CD133+/CD19−/CD38−), skin cancer (CD34+), breast cancer (CD44+/CD24−/ESA+), ovarian cancer (CD44+/CD117+), brain tumor (CD133+) prostate cancer (CD44+/CD24−), head-neck squamous cell carcinoma (CD44+), laryngeal cancer (CD133+), pancreatic cancer (ESA+/CD44+/CD24+), retinoblastoma (ABCG2/ALDH1), Children hepatoblastoma (CD34+/THY1+/c-kit+), liver cancer (CD133+), malignant melanoma (CD133+), colorectal cancer (EpCAM^high/CD44+), colon adenocarcinoma (CD44^high), glioma (ABCG-2/BCRP1), gastrointestinal tumor (ABCG-2/BCRP1), nasopharynx cancer (ABCG2), brain glioma (Dlk-1/Pref-1), gastric cancer (CD45+), lung adenocarcinoma (Sca-1/CD45-/Pecam-/CD34+), lung cancer (CD133+CD34+CD44+)) of patient. Take the acute myelogenous leukemia as the example, conduct density gradient centrifugation with Ficoll and take out the middle mononuclear cells, re-suspend it with serum-free IMDM after centrifuged. Adjust the concentration of cells into 1×10^6/mL and lay 24-well plate with 1 mL in each well, and then treat 18 hours with the compound to select with corresponding concentration. Collect the cells and centrifuge them at 1500 rps for 8 minutes, re-suspend the precipitation with […], mark the antibodies related to leukemia stem cell, avoid light to incubate 30 minutes at room temperature and then centrifuge it at 1500 rps, then wash away the unbound antibody CD34^+CD38^+. Re-suspend it with 100 μl 1× Binding Buffer and add respectively 5 μl Annexin V-FITC and PI, then avoid light to incubate 15 minutes before add 200 μl 1× Binding Buffer, then use flow cytometry to examine the marked apoptosis within one hour.

[1] = test system: PGE2 secreted by synoviocyte; assay: Content of PGE2 in culture supernatant of synoviocyte of RA model rats given test compound; assay type: in vivo; conditions: rat RA model, dose 30 mg/kg.2d; normal control 8.34 ± 1.29, NaCl 32.44 ± 10.32
Outline: (§2)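 Animals with induced RA are grouped and dosed with compound (30 mg/kg.2d) alongside NaCl and normal controls. Synoviocytes are prepared and cultured, and supernatants are harvested. TNF-α and PGE2 secretion are then quantified by one procedure, IL-1β by another.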

cancer cells = assay: Survival rate of cancer cells after test compound is added (flow cytometry, Annexin V-FITC/PI, clinical specimen); assay type: cell-based, patient; conditions: Homo sapiens, 18 h, read-out: Survival rate (%) All cells (Stem cells and ordinary cells)
Description: as §1

[2] = test system: IL-1β secreted by synoviocyte; assay: Content of IL-1β in culture supernatant of synoviocyte of RA model rats given test compound; assay type: in vivo; conditions: rat RA model, dose 30 mg/kg.2d; normal control 0.16 ± 0.034, NaCl 0.49 ± 0.136
Outline: as §2

normal cells = assay: Survival rate of normal cells after test compound is added (flow cytometry, Annexin V-FITC/PI); assay type: cell-based; conditions: 18 h
Description: as §1

[3] = Head and neck squamous cell carcinomas
[4] = read-out: Survival rate (%) All cells (Stem cells and ordinary cells)
[5] = read-out: Survival rate (%) Stem cells

Compound: C=C1C(=O)O[C@H]2[C@H]1CCC(C)=C1CC[C@@](C)(OC(=O)CCCc3cn(CCCCCCO)nn3)[C@@H]12 [Compound 21]
- viability at 10 µM (cancer stem cells; AML): 66%
- viability at 20 µM (cancer stem cells; AML): 47%
- viability at 10 µM (cancer stem cells; Brain glioma): 68%
- viability at 20 µM (cancer stem cells; Brain glioma): 53%
- viability at 10 µM (cancer stem cells; Brain tumor): 65%
- viability at 20 µM (cancer stem cells; Brain tumor): 54%
- viability at 10 µM (cancer stem cells; Breast cancer): 62%
- viability at 20 µM (cancer stem cells; Breast cancer): 55%
- viability at 10 µM (cancer stem cells; CLL): 51%
- viability at 20 µM (cancer stem cells; CLL): 48%
- viability at 10 µM (cancer stem cells; CML): 75%
- viability at 20 µM (cancer stem cells; CML): 56%
- viability at 10 µM (cancer stem cells; Children hepatoblastoma): 74%
- viability at 20 µM (cancer stem cells; Children hepatoblastoma): 57%
- viability at 10 µM (cancer stem cells; Colon adenocarcinoma): 58%
- viability at 20 µM (cancer stem cells; Colon adenocarcinoma): 44%
- viability at 10 µM (cancer stem cells; Colorectal cancer): 73%
- viability at 20 µM (cancer stem cells; Colorectal cancer): 58%
- viability at 10 µM (cancer stem cells; Gastric cancer): 56%
- viability at 20 µM (cancer stem cells; Gastric cancer): 45%
- viability at 10 µM (cancer stem cells; Gastrointestinal tumor): 64%
- viability at 20 µM (cancer stem cells; Gastrointestinal tumor): 46%
- viability at 10 µM (cancer stem cells; Glioma): 78%
- viability at 20 µM (cancer stem cells; Glioma): 67%
- viability at 10 µM (cancer stem cells; [3]): 75%
- viability at 20 µM (cancer stem cells; [3]): 66%
- viability at 10 µM (cancer stem cells; Laryngeal cancer): 66%
- viability at 20 µM (cancer stem cells; Laryngeal cancer): 52%
- viability at 10 µM (cancer stem cells; Liver cancer): 64%
- viability at 20 µM (cancer stem cells; Liver cancer): 55%
- viability at 10 µM (cancer stem cells; Lung adenocarcinoma): 58%
- viability at 20 µM (cancer stem cells; Lung adenocarcinoma): 49%
- viability at 10 µM (cancer stem cells; Lung cancer): 63%
- viability at 20 µM (cancer stem cells; Lung cancer): 54%
- viability at 10 µM (cancer stem cells; Malignant melanoma): 59%
- viability at 20 µM (cancer stem cells; Malignant melanoma): 45%
- viability at 10 µM (cancer stem cells; Nasopharynx cancer): 55%
- viability at 20 µM (cancer stem cells; Nasopharynx cancer): 42%
- viability at 10 µM (cancer stem cells; Ovarian cancer): 56%
- viability at 20 µM (cancer stem cells; Ovarian cancer): 49%
- viability at 10 µM (cancer stem cells; Pancreatic cancer): 57%
- viability at 20 µM (cancer stem cells; Pancreatic cancer): 50%
- viability at 10 µM (cancer stem cells; Prostate cancer): 68%
- viability at 20 µM (cancer stem cells; Prostate cancer): 57%
- viability at 10 µM (cancer stem cells; Retinoblastoma): 56%
- viability at 20 µM (cancer stem cells; Retinoblastoma): 47%
- viability at 10 µM (cancer stem cells; Skin cancer): 56%
- viability at 20 µM (cancer stem cells; Skin cancer): 47%
- Content of PGE2 in culture supernatant of synoviocyte (x ± s) [1]: 19.59 ± 3.25 ng/mL
- viability at 10 µM (cancer cells; AML): 75%
- viability at 20 µM (cancer cells; AML): 56%
- viability at 10 µM (cancer cells; Brain glioma): 79%
- viability at 20 µM (cancer cells; Brain glioma): 68%
- viability at 10 µM (cancer cells; Brain tumor): 75%
- viability at 20 µM (cancer cells; Brain tumor): 62%
- viability at 10 µM (cancer cells; Breast cancer): 72%
- viability at 20 µM (cancer cells; Breast cancer): 66%
- viability at 10 µM (cancer cells; CLL): 63%
- viability at 20 µM (cancer cells; CLL): 62%
- viability at 10 µM (cancer cells; CML): 82%
- viability at 20 µM (cancer cells; CML): 69%
- viability at 10 µM (cancer cells; Children hepatoblastoma): 81%
- viability at 20 µM (cancer cells; Children hepatoblastoma): 66%
- viability at 10 µM (cancer cells; Colon adenocarcinoma): 71%
- viability at 20 µM (cancer cells; Colon adenocarcinoma): 56%
- viability at 10 µM (cancer cells; Colorectal cancer): 78%
- viability at 20 µM (cancer cells; Colorectal cancer): 67%
- viability at 10 µM (cancer cells; Gastric cancer): 67%
- viability at 20 µM (cancer cells; Gastric cancer): 55%
- viability at 10 µM (cancer cells; Gastrointestinal tumor): 75%
- viability at 20 µM (cancer cells; Gastrointestinal tumor): 58%
- viability at 10 µM (cancer cells; Glioma): 87%
- viability at 20 µM (cancer cells; Glioma): 78%
- viability at 10 µM (cancer cells; [3]): 86%
- viability at 20 µM (cancer cells; [3]): 82%
- viability at 10 µM (cancer cells; Laryngeal cancer): 73%
- viability at 20 µM (cancer cells; Laryngeal cancer): 61%
- viability at 10 µM (cancer cells; Liver cancer): 77%
- viability at 20 µM (cancer cells; Liver cancer): 61%
- viability at 10 µM (cancer cells; Lung adenocarcinoma): 67%
- viability at 20 µM (cancer cells; Lung adenocarcinoma): 64%
- viability at 10 µM (cancer cells; Lung cancer): 74%
- viability at 20 µM (cancer cells; Lung cancer): 68%
- viability at 10 µM (cancer cells; Malignant melanoma): 69%
- viability at 20 µM (cancer cells; Malignant melanoma): 56%
- viability at 10 µM (cancer cells; Nasopharynx cancer): 65%
- viability at 20 µM (cancer cells; Nasopharynx cancer): 56%
- viability at 10 µM (cancer cells; Ovarian cancer): 64%
- viability at 20 µM (cancer cells; Ovarian cancer): 57%
- viability at 10 µM (cancer cells; Pancreatic cancer): 66%
- viability at 20 µM (cancer cells; Pancreatic cancer): 62%
- viability at 10 µM (cancer cells; Prostate cancer): 77%
- viability at 20 µM (cancer cells; Prostate cancer): 65%
- viability at 10 µM (cancer cells; Retinoblastoma): 65%
- viability at 20 µM (cancer cells; Retinoblastoma): 59%
- viability at 10 µM (cancer cells; Skin cancer): 64%
- viability at 20 µM (cancer cells; Skin cancer): 57%
- Content of IL-1β in culture supernatant of synoviocyte (x ± s) [2]: 0.36 ± 0.057 ng/mL
- viability at 10 µM (normal cells; [4]): 95%
- viability at 10 µM (normal cells; [5]): 94%
- viability at 20 µM (normal cells; [4]): 94%
- viability at 20 µM (normal cells; [5]): 92%
